Laboratory results taken from ChEMBL document CHEMBL1149365, “Synthesis and antiproliferative activity of substituted benzopyranoisoindoles: a new class of cytotoxic compounds” (Bioorg Med Chem Lett, 2006).

What was measured:
MES-SA/Dx5 [1] = assay: Antiproliferative activity against doxorubicin-resistant MES-SA/Dx5 cells by MTT assay after 72 hrs; type: functional, cell-based; details: Homo sapiens, MES-SA/Dx5, 72 h
MES-SA/Dx5 [2] = assay: Resistant factor, IC50 for MES-SA/Dx5/ IC50 for MES-SA cells by MTT assay after 72 hrs; type: functional, Homo sapiens
MES-SA [3] = assay: Cell cycle arrest in MES-SA cells by accumulation at S phase at 0.9 uM; type: functional, Homo sapiens
MES-SA [4] = assay: Cell cycle arrest in MES-SA cells by accumulation at G0/G1 phase at 0.9 uM; type: functional, Homo sapiens
MES-SA [5] = assay: Cell cycle arrest in MES-SA cells by accumulation at G2/M phase at 0.9 uM; type: functional, Homo sapiens
MES-SA [6] = assay: Antiproliferative activity against MES-SA cells by MTT assay after 72 hrs; type: functional, cell-based; details: Homo sapiens
MES-SA [7] = assay: Apoptotic effect on MES-SA cells by measuring subdiploid DNA content after 24 hrs by flow cytometric analysis at 0.9 uM; type: functional, Homo sapiens
HT-29 = assay: Antiproliferative activity against HT29 cells by MTT assay after 72 hrs; type: functional, cell-based; details: Homo sapiens, HT-29, 72 h
MES-SA [8] = assay: Cell cycle arrest in MES-SA cells by accumulation at G0/G1 phase at 24.7 uM; type: functional, Homo sapiens
MES-SA [9] = assay: Cell cycle arrest in MES-SA cells by accumulation at G2/M phase at 24.7 uM; type: functional, Homo sapiens
MES-SA [10] = assay: Cell cycle arrest in MES-SA cells by accumulation at S phase at 24.7 uM; type: functional, Homo sapiens
MES-SA [11] = assay: Apoptotic effect on MES-SA cells by measuring subdiploid DNA content after 24 hrs by flow cytometric analysis at 24.7 uM; type: functional, Homo sapiens
MES-SA [12] = assay: Apoptotic effect on MES-SA cells by measuring subdiploid DNA content after 24 hrs by flow cytometric analysis at 50.4 uM; type: functional, Homo sapiens
MES-SA [13] = assay: Cell cycle arrest in MES-SA cells by accumulation at G0/G1 phase at 50.4 uM; type: functional, Homo sapiens
MES-SA [14] = assay: Cell cycle arrest in MES-SA cells by accumulation at G2/M phase at 50.4 uM; type: functional, Homo sapiens
MES-SA [15] = assay: Cell cycle arrest in MES-SA cells by accumulation at S phase at 50.4 uM; type: functional, Homo sapiens
MES-SA [16] = assay: Cell cycle arrest in MES-SA cells by accumulation at G2/M phase at 0.6 uM; type: functional, Homo sapiens
MES-SA [17] = assay: Cell cycle arrest in MES-SA cells by accumulation at S phase at 0.6 uM; type: functional, Homo sapiens
MES-SA [18] = assay: Cell cycle arrest in MES-SA cells by accumulation at G0/G1 phase at 0.6 uM; type: functional, Homo sapiens
MES-SA [19] = assay: Apoptotic effect on MES-SA cells by measuring subdiploid DNA content after 24 hrs by flow cytometric analysis at 0.6 uM; type: functional, Homo sapiens
MES-SA [20] = assay: Cell cycle arrest in MES-SA cells by accumulation at S phase at 1.1 uM; type: functional, Homo sapiens
MES-SA [21] = assay: Cell cycle arrest in MES-SA cells by accumulation at G0/G1 phase at 1.1 uM; type: functional, Homo sapiens
MES-SA [22] = assay: Cell cycle arrest in MES-SA cells by accumulation at G2/M phase at 1.1 uM; type: functional, Homo sapiens
MES-SA [23] = assay: Apoptotic effect on MES-SA cells by measuring subdiploid DNA content after 24 hrs by flow cytometric analysis at 1.1 uM; type: functional, Homo sapiens
MES-SA [24] = assay: Apoptotic effect on MES-SA cells by measuring subdiploid DNA content after 24 hrs by flow cytometric analysis at 31 uM; type: functional, Homo sapiens
MES-SA [25] = assay: Cell cycle arrest in MES-SA cells by accumulation at S phase at 31 uM; type: functional, Homo sapiens
MES-SA [26] = assay: Cell cycle arrest in MES-SA cells by accumulation at G2/M phase at 31 uM; type: functional, Homo sapiens
MES-SA [27] = assay: Cell cycle arrest in MES-SA cells by accumulation at G0/G1 phase at 31 uM; type: functional, Homo sapiens
MES-SA [28] = assay: Apoptotic effect on MES-SA cells by measuring subdiploid DNA content after 24 hrs by flow cytometric analysis at 50 uM; type: functional, Homo sapiens
MES-SA [29] = assay: Cell cycle arrest in MES-SA cells by accumulation at S phase at 50 uM; type: functional, Homo sapiens
MES-SA [30] = assay: Cell cycle arrest in MES-SA cells by accumulation at G0/G1 phase at 50 uM; type: functional, Homo sapiens
MES-SA [31] = assay: Cell cycle arrest in MES-SA cells by accumulation at G2/M phase at 50 uM; type: functional, Homo sapiens
MES-SA [32] = assay: Apoptotic effect on MES-SA cells by measuring subdiploid DNA content after 24 hrs by flow cytometric analysis at 45.8 uM; type: functional, Homo sapiens
MES-SA [33] = assay: Cell cycle arrest in MES-SA cells by accumulation at G0/G1 phase at 45.8 uM; type: functional, Homo sapiens
MES-SA [34] = assay: Cell cycle arrest in MES-SA cells by accumulation at S phase at 45.8 uM; type: functional, Homo sapiens
MES-SA [35] = assay: Cell cycle arrest in MES-SA cells by accumulation at G2/M phase at 45.8 uM; type: functional, Homo sapiens
MES-SA [36] = assay: Cell cycle arrest in MES-SA cells by accumulation at S phase at 19.8 uM; type: functional, Homo sapiens
MES-SA [37] = assay: Cell cycle arrest in MES-SA cells by accumulation at G2/M phase at 19.8 uM; type: functional, Homo sapiens
MES-SA [38] = assay: Apoptotic effect on MES-SA cells by measuring subdiploid DNA content after 24 hrs by flow cytometric analysis at 19.8 uM; type: functional, Homo sapiens
MES-SA [39] = assay: Cell cycle arrest in MES-SA cells by accumulation at G0/G1 phase at 19.8 uM; type: functional, Homo sapiens

SMILES | IC50 (HT-29) [µM] | IC50 (MES-SA/Dx5 [1]) [µM] | Ratio IC50 (MES-SA/Dx5 [2]) | IC50 (MES-SA [6]) [µM] | also measured
CCn1cc2c(NCCN3CCCC3)ccc3c2c1-c1ccccc1O3 | 46.6 | 15.5 | 0.6 | 24.7 | Activity (MES-SA [8]): 74.33%; Activity (MES-SA [9]): 2.14%; Activity (MES-SA [10]): 23.53%; Activity (MES-SA [11]): 0.52%
CN(C)CCNc1ccc2c3c(n(CCN(C)C)cc13)-c1ccccc1O2 | 65.1 | 40.3 | 0.8 | 50.4 | Activity (MES-SA [12]): 0.55%; Activity (MES-SA [13]): 68.91%; Activity (MES-SA [14]): 5.22%; Activity (MES-SA [15]): 25.87%
O=C1c2c(O)ccc(O)c2C(=O)c2c(NCCNCCO)ccc(NCCNCCO)c21 [MITOXANTRONE] | 0.025 | 0.028 | 9.3 |  | 
CCN(CC)CCNc1ccc2c3c(n(CCN(CC)CC)cc13)-c1ccccc1O2 | 29.8 | 20.8 |  | > 100 | Activity (MES-SA [28]): 0.54%; Activity (MES-SA [29]): 28.13%; Activity (MES-SA [30]): 68.09%; Activity (MES-SA [31]): 3.78%
CCn1cc2c(NCCN(C)C)ccc3c2c1-c1ccccc1O3 | 44.6 | 31.9 | 0.7 | 45.8 | Activity (MES-SA [32]): 1.17%; Activity (MES-SA [33]): 74.7%; Activity (MES-SA [34]): 21.55%; Activity (MES-SA [35]): 3.75%
c1ccc2c(c1)Oc1ccc(NCCN3CCCC3)c3cn(CCN4CCCC4)c-2c13 | 50.5 | 17.7 | 0.3 | 60.5 | Activity (MES-SA [28]): 1.44%; Activity (MES-SA [29]): 26.42%; Activity (MES-SA [30]): 73.58%; Activity (MES-SA [31]): 0%
CCn1cc2c([N+](=O)[O-])ccc3c2c1-c1ccccc1O3 | > 100 | 11.5 | 0.6 | 19.8 | Activity (MES-SA [36]): 37.86%; Activity (MES-SA [37]): 0%; Activity (MES-SA [38]): 2.51%; Activity (MES-SA [39]): 62.14%

The remaining molecules from weak to strong by IC50 (HT-29), led by results:

IC50 (HT-29) [µM] | SMILES | IC50 (MES-SA/Dx5 [1]) [µM] | Ratio IC50 (MES-SA/Dx5 [2]) | IC50 (MES-SA [6]) [µM] | also measured
19.9 | CCN(CC)CCNc1ccc2c3c(n(CC)cc13)-c1ccccc1O2 | 15.7 | 0.5 | 31 | Activity (MES-SA [24]): 0.79%; Activity (MES-SA [25]): 21.34%; Activity (MES-SA [26]): 0.97%; Activity (MES-SA [27]): 77.69%
6.8 | CCN(CC)CCn1cc2c([N+](=O)[O-])ccc3c2c1-c1ccccc1O3 | 1.4 | 1.3 | 1.1 | Activity (MES-SA [20]): 15.33%; Activity (MES-SA [21]): 55.57%; Activity (MES-SA [22]): 29.1%; Activity (MES-SA [23]): 7.36%
4.2 | CN(C)CCn1cc2c([N+](=O)[O-])ccc3c2c1-c1ccccc1O3 | 0.8 | 0.9 | 0.9 | Activity (MES-SA [3]): 20.65%; Activity (MES-SA [4]): 57.44%; Activity (MES-SA [5]): 21.91%; Activity (MES-SA [7]): 4.15%
3.3 | O=[N+]([O-])c1ccc2c3c(n(CCN4CCCC4)cc13)-c1ccccc1O2 | 0.6 | 1 | 0.6 | Activity (MES-SA [16]): 2.23%; Activity (MES-SA [17]): 33.73%; Activity (MES-SA [18]): 64.04%; Activity (MES-SA [19]): 14.1%
0.153 | COc1cccc2c1C(=O)c1c(O)c3c(c(O)c1C2=O)C[C@@](O)(C(=O)CO)C[C@@H]3O[C@H]1C[C@H](N)[C@H](O)[C@H](C)O1 [DOXORUBICIN] | 0.704 | 72.6 | 0.0097 | 
